Measurements as given in PMC6749524, “Identification of New Antifungal Agents Targeting Chitin Synthesis by a Chemical-Genetic Method” (Molecules, 2019).

Columns and labels:
[1] = test system: WT S. cerevisiae strain BY4741; assay: MIC in compound library screening assay, WT yeast; type: cell-based; settings: WT BY4741, YPD, 30 °C, 24 hours, MIC90
Experimental: The compound library is a combination of synthetic compounds from Enamine (Kyiv, Ukraine) and Life Chemicals Inc. (Burlington, ON, Canada) and natural products from the Institute of Medicinal Biotechnology. We used WT, chs3∆, and fks1∆ yeast strains to screen new antifungal agents. The screening assays were performed in 96-well plates in a final volume of 200 μL. Fresh yeast cells (OD600 = 0.8) were diluted to 10^5 CFU/mL in YPD medium. We added 198 μL of diluted culture and 2 μL of compounds into each well, and the final concentration of compounds was 100 μg/mL with 1% DMSO. The yeast cells were incubated at 30 °C for 24 hours to assess the growth. For the compounds that inhibited the growth of all three yeast strains, they were serially diluted to determine the minimal inhibit concentration (MIC) with the same method. MIC endpoints were defined as the lowest concentration of drugs that cause a 90% decrease in growth compared to the drug-free control (MIC90).

[2] = test system: Escherichia coli ATCC 25922; assay: Growth inhibition of bacteria; type: cell-based; settings: Escherichia coli ATCC 25922, at 100 μg/mL
WT yeast cells = assay: Cell division morphology, light microscopy; type: cell-based, S. cerevisiae; settings: treatment for 5 hours at 30 °C (IMB-D10 25 μg/mL)
Experimental: (§1) WT S. cerevisiae and C. albicans ATCC10231 were grown to 10^5 CFU/mL in YPD medium and then treated with IMB-D10 (12.5 or 25 μg/mL), IMB-F4 (12.5 or 25 μg/mL), or 0.25% DMSO for 3 and 5 hours at 30 ℃. Cells were collected by centrifugation at 1500 g for 5 min and resuspended in PBS. Some cells were examined using 100 × / 1.25 oil immersion objective (DM2500, Leica) and analyzed by Leica las. Some cells were stained with 100 μg/mL Calcofluor White M2R (CFW, Sigma-Aldrich, St. Louis, MO, USA for 3 min and washed three times with water. Then, the cells were examined under the UV light for fluorescent signals.

WT S. cerevisiae = assay: Checkerboard assay, synergy with caspofungin; type: cell-based; settings: S. cerevisiae, MIC80; for MIC of Caspofungin Combination: MIC of caspofungin in combination with the named compound; for MIC Combination: MIC of the compound in combination with caspofungin
Experimental: (§2) Fresh cell cultures of WT S. cerevisiae and C. albicans ATCC10231 (OD600 = 0.8) were diluted to 10^4 CFU/mL in YPD medium. The in vitro synergistic and antagonistic effects of compounds were determined using checkerboard assay. MIC endpoints were defined as the lowest concentration of drugs, causing 80% decrease in viability compared to the drug-free control (MIC80). The calculation and interpretation of the fractional inhibitory concentration index (FICI) were carried out by referring to the document standards. FICI = (MIC of drug A in combination) / (MIC of drug A alone) + (MIC of drug B in combination) / (MIC of drug B alone). FIC ≤0.5 was considered as a synergistic effect, and >2 was considered as antagonism.

C. albicans ATCC10231 [3] = assay: Checkerboard assay, synergy with caspofungin; type: cell-based; settings: Candida albicans; for MIC of Caspofungin Combination: MIC of caspofungin in combination with the named compound; for MIC Combination: MIC of the compound in combination with caspofungin
Experimental: as §2

Chs2 = assay: iTRAQ protein level of chitin synthase; type: cell-based, S. cerevisiae; settings: 25 μg/mL, 16 hours
Sequence of Chs2 (P14180 whole entry): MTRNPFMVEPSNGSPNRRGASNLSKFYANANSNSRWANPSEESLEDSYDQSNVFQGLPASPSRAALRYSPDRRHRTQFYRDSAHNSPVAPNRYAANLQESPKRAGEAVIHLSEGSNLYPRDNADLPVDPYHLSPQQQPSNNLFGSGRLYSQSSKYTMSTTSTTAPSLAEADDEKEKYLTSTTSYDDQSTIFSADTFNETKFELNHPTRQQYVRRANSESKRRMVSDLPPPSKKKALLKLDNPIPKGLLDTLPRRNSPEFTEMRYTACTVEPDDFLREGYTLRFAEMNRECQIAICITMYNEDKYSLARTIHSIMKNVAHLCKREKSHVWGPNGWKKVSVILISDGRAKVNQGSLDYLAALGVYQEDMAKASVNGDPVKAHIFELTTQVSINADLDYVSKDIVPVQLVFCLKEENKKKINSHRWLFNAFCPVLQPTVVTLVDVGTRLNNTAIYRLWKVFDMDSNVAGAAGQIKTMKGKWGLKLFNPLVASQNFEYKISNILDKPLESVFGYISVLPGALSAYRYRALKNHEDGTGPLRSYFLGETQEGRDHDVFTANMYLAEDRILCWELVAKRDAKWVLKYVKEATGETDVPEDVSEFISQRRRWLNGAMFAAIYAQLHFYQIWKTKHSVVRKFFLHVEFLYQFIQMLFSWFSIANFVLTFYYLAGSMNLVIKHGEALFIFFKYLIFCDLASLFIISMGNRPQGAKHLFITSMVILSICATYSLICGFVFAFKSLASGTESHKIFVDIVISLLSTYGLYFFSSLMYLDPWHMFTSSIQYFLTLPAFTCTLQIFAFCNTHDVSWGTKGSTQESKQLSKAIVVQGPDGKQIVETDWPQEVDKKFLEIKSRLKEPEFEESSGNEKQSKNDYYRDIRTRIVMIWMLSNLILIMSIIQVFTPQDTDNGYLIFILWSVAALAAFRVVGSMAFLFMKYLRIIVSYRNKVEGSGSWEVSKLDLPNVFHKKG
Experimental: (§3) WT cells were grown to 10^5 CFU/mL in YPD medium and then treated with 25 μg/mL compounds or 0.25% DMSO for 16 hours at 30 °C. The cells were collected by centrifugation at 1500 g for 5 min and then stored at −80 °C. The frozen samples were grounded to a fine powder with liquid nitrogen and then transferred to an Eppendorf tube with phenol extraction buffer containing 1 mM Phenylmethanesulfonyl fluoride (PMSF). The samples were lysed with sonication, and proteins were extracted with phenol and then precipitated with ammonium acetate/methanol. The methanol was excluded by acetone, and the precipitates were collected by centrifugation at 12,000 g for 10 min at 4 °C. The precipitates were dried at room temperature for 3 min and dissolved in SDS lysis buffer for 2 hours. The samples were further centrifuged at 12,000 g for 10 min, and the collected supernatants were centrifuged again to remove precipitation completely. After the determination of protein concentration using Pierce^TM BCA Protein Assay kit (Thermo Scientific, Rockford, IL, USA), the protein samples were aliquoted for storage at −80 °C.
(§4) The Filter Aided Sample Preparation (FASP) digestion was performed according to a universal sample preparation method for proteome analysis. Peptides were labeled by iTRAQ using iTRAQ Reagents Multiplex Kit (AB SCIEX, Framingham, MA, USA) and then were fractionated by SCX chromatography using the AKTA Purifier system (GE Healthcare, Stockholm, Sweden). LC-MS/MS analysis was performed on Nano LC-1D plus (Eksigent, San Francisco, CA, USA) that was coupled to Triple TOF 6600 spectrometer (AB SCIEX, Framingham, MA, USA) for 50 min. The mass spectrometer was operated in positive ion mode. The MS/MS data were analyzed for protein identification and quantification using ProteinPilot software (v.5). The local false discovery rate was estimated with the integrated PSPEP tool in the ProteinPilot Software to be 1% after searching against a decoy concatenated UniProt S. cerevisiae protein database. For a protein showing differential expression, it must have been identified and quantified with at least one significant peptide, and the p-values of the proteins quantitation should be less than 0.05 and fold change ≥1.5.

Chs1 = assay: iTRAQ protein level of chitin synthase; type: cell-based, S. cerevisiae; settings: 25 μg/mL, 16 hours
Sequence of Chs1 (P08004 whole entry): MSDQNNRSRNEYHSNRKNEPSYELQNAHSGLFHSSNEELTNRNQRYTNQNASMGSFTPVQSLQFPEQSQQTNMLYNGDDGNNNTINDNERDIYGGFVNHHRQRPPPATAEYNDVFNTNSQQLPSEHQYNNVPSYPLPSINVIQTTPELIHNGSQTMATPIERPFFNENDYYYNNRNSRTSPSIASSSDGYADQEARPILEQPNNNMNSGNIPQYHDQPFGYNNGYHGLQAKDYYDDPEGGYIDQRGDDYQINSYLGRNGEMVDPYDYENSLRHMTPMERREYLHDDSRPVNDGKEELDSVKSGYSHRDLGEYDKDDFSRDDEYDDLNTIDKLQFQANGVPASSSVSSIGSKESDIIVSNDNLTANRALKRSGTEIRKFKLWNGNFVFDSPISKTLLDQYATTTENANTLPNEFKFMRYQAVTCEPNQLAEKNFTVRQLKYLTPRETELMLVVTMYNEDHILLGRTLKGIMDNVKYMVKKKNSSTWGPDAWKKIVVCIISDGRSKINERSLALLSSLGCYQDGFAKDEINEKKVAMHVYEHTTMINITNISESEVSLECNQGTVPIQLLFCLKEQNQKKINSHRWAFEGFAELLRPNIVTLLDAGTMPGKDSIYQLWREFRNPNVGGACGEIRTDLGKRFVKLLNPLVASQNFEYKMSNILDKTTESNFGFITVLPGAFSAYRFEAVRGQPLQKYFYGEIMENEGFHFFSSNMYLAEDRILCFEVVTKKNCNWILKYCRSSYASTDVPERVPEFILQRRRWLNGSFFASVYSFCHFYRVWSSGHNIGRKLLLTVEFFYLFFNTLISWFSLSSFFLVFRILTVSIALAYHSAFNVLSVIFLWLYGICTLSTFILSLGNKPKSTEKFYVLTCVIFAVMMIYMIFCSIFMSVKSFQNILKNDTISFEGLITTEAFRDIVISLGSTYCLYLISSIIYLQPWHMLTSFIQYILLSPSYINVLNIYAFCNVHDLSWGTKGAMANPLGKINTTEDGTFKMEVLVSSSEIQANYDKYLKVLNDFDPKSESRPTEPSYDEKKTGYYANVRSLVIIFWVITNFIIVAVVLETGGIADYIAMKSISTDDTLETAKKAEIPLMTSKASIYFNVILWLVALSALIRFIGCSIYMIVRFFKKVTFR
Experimental: as §3, §4

Chs3 = assay: iTRAQ protein level of chitin synthase; type: cell-based, S. cerevisiae; settings: 25 μg/mL, 16 hours
Sequence of Chs3 (P29465 whole entry): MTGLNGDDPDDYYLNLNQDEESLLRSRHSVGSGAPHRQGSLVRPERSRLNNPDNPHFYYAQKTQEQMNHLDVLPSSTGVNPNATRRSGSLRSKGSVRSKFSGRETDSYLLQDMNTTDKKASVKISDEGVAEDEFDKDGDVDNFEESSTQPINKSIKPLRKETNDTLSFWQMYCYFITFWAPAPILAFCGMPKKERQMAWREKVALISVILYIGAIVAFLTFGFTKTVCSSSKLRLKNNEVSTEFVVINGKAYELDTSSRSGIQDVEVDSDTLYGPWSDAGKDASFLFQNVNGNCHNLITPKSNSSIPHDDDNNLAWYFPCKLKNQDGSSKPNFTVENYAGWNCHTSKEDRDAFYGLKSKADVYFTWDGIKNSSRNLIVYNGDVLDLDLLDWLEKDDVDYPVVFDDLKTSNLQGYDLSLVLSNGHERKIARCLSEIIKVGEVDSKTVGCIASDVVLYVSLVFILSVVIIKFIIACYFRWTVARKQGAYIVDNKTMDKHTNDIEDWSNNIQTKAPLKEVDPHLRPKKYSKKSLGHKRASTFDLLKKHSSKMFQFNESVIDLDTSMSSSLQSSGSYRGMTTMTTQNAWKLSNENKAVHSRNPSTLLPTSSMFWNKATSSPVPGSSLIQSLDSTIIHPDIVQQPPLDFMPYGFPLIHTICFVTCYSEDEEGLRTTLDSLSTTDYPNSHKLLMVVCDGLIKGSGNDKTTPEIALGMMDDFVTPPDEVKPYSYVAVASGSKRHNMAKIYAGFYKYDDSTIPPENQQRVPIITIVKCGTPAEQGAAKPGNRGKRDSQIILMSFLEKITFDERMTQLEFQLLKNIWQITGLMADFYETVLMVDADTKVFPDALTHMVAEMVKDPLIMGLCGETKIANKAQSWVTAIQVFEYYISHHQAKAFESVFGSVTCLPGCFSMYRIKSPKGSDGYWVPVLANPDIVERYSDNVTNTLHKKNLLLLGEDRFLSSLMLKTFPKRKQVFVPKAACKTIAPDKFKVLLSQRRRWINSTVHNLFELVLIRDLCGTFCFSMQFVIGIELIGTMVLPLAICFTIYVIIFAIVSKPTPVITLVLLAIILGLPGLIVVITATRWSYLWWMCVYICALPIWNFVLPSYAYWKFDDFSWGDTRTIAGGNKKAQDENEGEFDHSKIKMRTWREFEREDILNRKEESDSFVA
Experimental: as §3, §4

chitin in WT yeast cells = assay: CFW staining of chitin, fluorescence microscopy; type: cell-based, S. cerevisiae; settings: 12.5 or 25 μg/mL, 3 or 5 hours, vs DMSO control
Experimental: as §1

C. albicans ATCC10231 [4] = assay: Growth inhibition, broth microdilution MIC; type: cell-based, Candida albicans
Experimental: The experiments were carried out using a broth microdilution protocol modified from the Clinical and Laboratory Standards Institute M-27A methods. WT S. cerevisiae and C. albicans were grown to mid-log phase in YPD medium. The cells were collected by centrifugation at 1500 g for 5 min and diluted with RPMI 1640 medium to the density of 1 × 10^4 CFU/mL. Then, the samples with various concentrations of compounds were dispensed at 0.2 mL/well in sterile 96-well microplates. The final concentrations of compounds ranged from 3.125 to 100 μg/mL with serial two-fold dilution. After incubation at 30 °C (S. cerevisiae) or 35 °C (C. albicans) for 24 hours, the minimal inhibitory concentration (MIC) was determined by measuring the optical density of the wells with cell cultures. The antifungal agent caspofungin was used as a positive control. All tests were performed in triplicate.

Molecule | MIC ([1]; Saccharomyces cerevisiae, read-out: MIC, WT) | growth inhibition [2] | cell division / cell separation morphology (WT yeast cells) | MIC of Caspofungin Combination (WT S. cerevisiae) | MIC Combination (WT S. cerevisiae) | MIC (WT S. cerevisiae; Saccharomyces cerevisiae, compound alone, read-out: MIC Alone) | MIC (C. albicans ATCC10231 [3]; ATCC10231, compound alone, MIC80, read-out: MIC Alone) | MIC of Caspofungin Combination (C. albicans ATCC10231 [3]; MIC80) | MIC Combination (C. albicans ATCC10231 [3]; MIC80) | FICI (C. albicans ATCC10231 [3]; fractional inhibitory concentration index with caspofungin, ≤0.5 synergistic) | relative abundance of Chs2 compared with cells treated with DMSO (Chs2) | relative abundance of Chs1 compared with cells treated with DMSO (Chs1) | relative abundance of Chs3 compared with cells treated with DMSO (Chs3) | CFW fluorescent signal around the cell wall and at the primary septum (chitin in WT yeast cells) | MIC (C. albicans ATCC10231 [4]; Candida albicans, read-out: MIC) | MIC, WT [1] | MIC Alone (WT S. cerevisiae; compound alone) | MIC Alone (C. albicans ATCC10231 [3]; compound alone, MIC80) | MIC (C. albicans ATCC10231 [4])
COc1cc(OC)cc(C(=O)N(CCn2ccnc2)c2nc3ccc(OC)cc3s2)c1 [IMB-F4, N-(2-(1H-imidazol-1-yl)ethyl)-3,5-dimethoxy-N-(6-methoxybenzo[d]thiazol-2-yl)benzamide] | > 100 mg/L | did not inhibit the growth | normal cell separation | 0.0075 mg/L | 25 mg/L | > 100 mg/L | > 100 mg/L | 0.003125 mg/L | 12.5 mg/L | <0.5 | remained similar | remained similar | remained similar | weaker fluorescent signal | > 100 mg/L |  |  |  | 
N-(2-(diethylamino) ethyl)-N-(7-hydroxy-4-methoxybenzo[d]thiazol -2-yl)-2-oxo-2H-chromene-3-carboxamide [IMB-D10] |  | did not inhibit the growth | some yeast cells failed to divide | 0.0075 mg/L | 12.5 mg/L |  |  | 0.00625 mg/L | 12.5 mg/L |  | 21.33 ± 6.18% | 22 ± 5.10% | 18.33 ± 1.89% | weaker fluorescent signal |  | 50 mg/L | 50 mg/L | 100 mg/L | 100 mg/L
